Results as given in ChEMBL document CHEMBL5329194, “Design, Synthesis, and Evaluation of 18F-Labeling CYP1B1 PET Tracer Based on 2-Phenylquinazolin” (Bioorg Med Chem Lett, 2023).

Tests used:
Assay type in all cases: ADME
[1] = molecular target: T1, Cytochrome P450 1A1 (Homo sapiens, UniProt P04798); assay: Inhibition of CYP1A1 (unknown origin)
T1 sequence (P04798 whole entry): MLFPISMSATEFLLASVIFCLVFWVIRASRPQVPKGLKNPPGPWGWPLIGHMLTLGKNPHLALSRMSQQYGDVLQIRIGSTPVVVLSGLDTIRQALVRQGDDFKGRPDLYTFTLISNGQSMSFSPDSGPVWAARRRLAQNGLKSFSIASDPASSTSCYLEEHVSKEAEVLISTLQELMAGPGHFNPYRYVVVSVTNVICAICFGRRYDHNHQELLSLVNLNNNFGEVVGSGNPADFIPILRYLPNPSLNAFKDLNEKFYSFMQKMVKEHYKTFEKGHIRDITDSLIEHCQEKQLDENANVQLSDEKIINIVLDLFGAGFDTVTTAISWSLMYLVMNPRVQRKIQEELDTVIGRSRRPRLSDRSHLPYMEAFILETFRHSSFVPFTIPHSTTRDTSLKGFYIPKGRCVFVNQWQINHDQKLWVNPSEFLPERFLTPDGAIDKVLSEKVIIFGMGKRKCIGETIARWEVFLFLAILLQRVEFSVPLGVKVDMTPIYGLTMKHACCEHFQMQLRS

[2] = molecular target: T2, Cytochrome P450 1A2 (Homo sapiens, UniProt P05177); assay: Inhibition of CYP1A2 (unknown origin)
T2 sequence (P05177 whole entry): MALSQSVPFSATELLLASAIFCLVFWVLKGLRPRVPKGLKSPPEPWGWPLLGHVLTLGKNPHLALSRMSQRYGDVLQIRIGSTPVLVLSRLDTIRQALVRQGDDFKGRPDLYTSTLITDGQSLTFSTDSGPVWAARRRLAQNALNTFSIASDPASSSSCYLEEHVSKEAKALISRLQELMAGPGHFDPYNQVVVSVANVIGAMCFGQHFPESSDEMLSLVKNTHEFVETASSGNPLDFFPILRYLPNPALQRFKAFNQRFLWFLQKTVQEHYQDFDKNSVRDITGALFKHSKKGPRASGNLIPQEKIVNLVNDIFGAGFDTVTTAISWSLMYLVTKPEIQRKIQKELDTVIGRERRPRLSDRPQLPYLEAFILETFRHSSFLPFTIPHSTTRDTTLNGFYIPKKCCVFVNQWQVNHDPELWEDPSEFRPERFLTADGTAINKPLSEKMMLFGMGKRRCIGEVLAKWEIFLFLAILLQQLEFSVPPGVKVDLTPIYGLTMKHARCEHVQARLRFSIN

[3] = tested on: CYP1A2 versus CYP1B1; assay: Selectivity ratio of IC50 for inhibition of CYP1A2 (unknown origin) to IC50 for inhibition of CYP1B1 (unknown origin); details: human; read-out: Ratio IC50
[4] = tested on: CYP1A1 versus CYP1B1; assay: Selectivity ratio of IC50 for inhibition of CYP1A1 (unknown origin) to IC50 for inhibition of CYP1B1 (unknown origin); details: human; read-out: Ratio IC50
[5] = molecular target: T3, Cytochrome P450 1B1 (Homo sapiens, UniProt Q16678); assay: Inhibition of CYP1B1 (unknown origin) by EROD assay
T3 sequence (Q16678 whole entry): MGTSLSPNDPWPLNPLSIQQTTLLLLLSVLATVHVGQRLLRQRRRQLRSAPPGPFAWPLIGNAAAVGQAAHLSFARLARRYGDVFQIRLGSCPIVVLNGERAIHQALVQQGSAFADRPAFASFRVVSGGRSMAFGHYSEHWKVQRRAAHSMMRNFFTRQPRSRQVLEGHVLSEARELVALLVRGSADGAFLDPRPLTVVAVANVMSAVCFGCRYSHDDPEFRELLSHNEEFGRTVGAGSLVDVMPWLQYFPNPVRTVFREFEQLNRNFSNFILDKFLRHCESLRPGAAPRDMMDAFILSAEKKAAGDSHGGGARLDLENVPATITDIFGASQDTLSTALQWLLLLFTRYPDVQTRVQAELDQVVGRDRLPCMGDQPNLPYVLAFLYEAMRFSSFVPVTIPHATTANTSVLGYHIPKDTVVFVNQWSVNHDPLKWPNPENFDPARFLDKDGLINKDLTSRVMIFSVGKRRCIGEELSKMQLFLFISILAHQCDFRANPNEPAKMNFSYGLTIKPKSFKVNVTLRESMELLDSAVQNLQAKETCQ

SMILES	IC50 [1] [nM]	IC50 [2] [nM]	selectivity ratio [3]	selectivity ratio [4]	IC50 [5] [nM]
FCCOc1nc(-c2ccc(Br)cc2)nc2ccccc12	> 1000	> 1000	> 21.1	> 21.1	47.3
O=c1cc(-c2ccccc2)oc2c1ccc1ccccc12 [ALPHA-NAPHTHOFLAVONE]	64.2	–	–	–	–
O=c1[nH]c(-c2ccc(OCCF)cc2)nc2ccccc12	> 1000	> 1000	> 20.2	> 20.2	49.4
